{"source": "ChEMBL document CHEMBL1201862", "about": "“PubChem BioAssay data set” (2004)", "key": {"[1]": {"molecular_target": "T1, Histone-lysine N-methyltransferase NSD2 (Homo sapiens, UniProt O96028)", "T1 sequence (O96028 whole entry)": "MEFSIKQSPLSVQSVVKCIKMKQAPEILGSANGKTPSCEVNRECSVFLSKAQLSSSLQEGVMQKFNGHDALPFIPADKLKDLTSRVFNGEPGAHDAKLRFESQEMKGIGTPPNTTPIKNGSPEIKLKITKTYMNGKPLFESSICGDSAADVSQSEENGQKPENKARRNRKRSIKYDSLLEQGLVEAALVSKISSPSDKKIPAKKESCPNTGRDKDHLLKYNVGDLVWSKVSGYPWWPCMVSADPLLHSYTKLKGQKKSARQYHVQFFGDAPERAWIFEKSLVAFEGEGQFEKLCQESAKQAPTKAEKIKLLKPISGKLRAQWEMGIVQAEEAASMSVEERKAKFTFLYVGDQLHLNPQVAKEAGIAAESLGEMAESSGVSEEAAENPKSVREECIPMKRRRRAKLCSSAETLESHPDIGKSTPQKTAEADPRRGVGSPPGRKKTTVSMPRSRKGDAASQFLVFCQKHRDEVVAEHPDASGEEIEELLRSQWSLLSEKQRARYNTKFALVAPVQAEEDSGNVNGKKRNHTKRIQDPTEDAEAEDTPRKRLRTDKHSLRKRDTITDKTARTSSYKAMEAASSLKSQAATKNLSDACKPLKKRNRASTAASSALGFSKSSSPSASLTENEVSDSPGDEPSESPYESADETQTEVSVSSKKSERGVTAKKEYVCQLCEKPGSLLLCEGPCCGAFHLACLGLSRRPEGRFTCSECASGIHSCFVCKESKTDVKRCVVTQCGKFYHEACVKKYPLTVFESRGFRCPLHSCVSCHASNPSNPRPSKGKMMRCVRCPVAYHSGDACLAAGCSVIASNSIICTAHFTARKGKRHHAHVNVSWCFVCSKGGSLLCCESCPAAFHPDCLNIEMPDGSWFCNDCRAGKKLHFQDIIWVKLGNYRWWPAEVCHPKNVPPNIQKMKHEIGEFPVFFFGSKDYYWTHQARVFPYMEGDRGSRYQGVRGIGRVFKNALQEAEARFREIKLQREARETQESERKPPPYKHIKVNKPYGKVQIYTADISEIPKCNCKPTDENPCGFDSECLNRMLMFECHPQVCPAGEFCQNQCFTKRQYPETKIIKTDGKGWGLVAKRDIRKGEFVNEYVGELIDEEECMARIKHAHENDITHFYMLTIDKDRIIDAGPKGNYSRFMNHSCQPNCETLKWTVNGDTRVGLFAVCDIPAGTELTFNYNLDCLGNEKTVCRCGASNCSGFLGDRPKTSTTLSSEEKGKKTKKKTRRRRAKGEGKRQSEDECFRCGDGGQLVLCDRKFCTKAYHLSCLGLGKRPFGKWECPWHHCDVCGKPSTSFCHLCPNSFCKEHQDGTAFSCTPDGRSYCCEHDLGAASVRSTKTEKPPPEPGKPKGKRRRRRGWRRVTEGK", "type": "biochemical"}, "[2]": {"molecular_target": "DNA (cytosine-5)-methyltransferase 1 (Homo sapiens, UniProt P26358)", "sequence (P26358 whole entry)": "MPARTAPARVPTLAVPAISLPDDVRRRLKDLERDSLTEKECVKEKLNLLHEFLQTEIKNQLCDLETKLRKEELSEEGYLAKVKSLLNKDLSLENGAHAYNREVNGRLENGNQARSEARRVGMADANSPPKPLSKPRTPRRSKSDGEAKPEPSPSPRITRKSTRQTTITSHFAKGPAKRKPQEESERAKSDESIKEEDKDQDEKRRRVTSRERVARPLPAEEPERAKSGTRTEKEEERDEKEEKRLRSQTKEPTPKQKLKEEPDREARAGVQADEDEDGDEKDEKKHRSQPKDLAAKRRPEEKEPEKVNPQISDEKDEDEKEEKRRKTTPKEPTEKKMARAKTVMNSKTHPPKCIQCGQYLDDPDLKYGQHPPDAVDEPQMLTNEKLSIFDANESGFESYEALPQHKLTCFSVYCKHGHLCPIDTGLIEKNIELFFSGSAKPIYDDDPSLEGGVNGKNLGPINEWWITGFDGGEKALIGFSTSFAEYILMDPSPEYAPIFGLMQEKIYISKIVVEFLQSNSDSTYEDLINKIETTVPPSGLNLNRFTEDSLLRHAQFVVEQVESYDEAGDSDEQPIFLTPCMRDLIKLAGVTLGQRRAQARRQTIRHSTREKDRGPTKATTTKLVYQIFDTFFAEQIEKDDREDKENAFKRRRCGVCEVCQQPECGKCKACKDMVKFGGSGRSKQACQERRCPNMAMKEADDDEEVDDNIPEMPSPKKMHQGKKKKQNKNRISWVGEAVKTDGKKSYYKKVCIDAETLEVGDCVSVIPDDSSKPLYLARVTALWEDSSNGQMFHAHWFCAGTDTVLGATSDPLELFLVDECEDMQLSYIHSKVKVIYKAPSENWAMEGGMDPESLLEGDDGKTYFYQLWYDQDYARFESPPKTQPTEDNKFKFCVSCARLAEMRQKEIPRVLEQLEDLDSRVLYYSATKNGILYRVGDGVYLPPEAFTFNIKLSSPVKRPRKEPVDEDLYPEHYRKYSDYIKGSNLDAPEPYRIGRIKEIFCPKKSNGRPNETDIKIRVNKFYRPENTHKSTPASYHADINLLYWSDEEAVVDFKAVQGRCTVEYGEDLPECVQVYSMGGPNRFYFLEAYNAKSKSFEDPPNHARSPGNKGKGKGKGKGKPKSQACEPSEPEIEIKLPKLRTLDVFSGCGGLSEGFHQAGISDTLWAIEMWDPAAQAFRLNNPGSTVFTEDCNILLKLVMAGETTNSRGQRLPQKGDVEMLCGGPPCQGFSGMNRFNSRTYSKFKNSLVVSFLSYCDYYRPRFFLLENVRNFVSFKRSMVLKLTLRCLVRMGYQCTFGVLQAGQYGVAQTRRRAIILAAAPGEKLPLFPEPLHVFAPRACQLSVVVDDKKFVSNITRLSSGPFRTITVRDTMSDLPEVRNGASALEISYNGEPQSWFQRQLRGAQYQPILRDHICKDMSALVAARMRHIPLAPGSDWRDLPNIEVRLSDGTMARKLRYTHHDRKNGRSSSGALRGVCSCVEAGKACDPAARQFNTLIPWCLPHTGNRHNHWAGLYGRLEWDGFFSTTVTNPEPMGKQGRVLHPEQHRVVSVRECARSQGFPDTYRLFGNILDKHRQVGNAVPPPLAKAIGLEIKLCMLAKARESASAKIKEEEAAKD", "assay": "inhibition of DNA methylation by DNMT1 – biochemical, fluorescent molecular beacon, confirmation (AID 602386)", "type": "functional"}, "[3]": {"molecular_target": "Adenosylmethionine-8-amino-7-oxononanoate aminotransferase (Mycobacterium tuberculosis, UniProt P9WQ81)", "sequence (P9WQ81 whole entry)": "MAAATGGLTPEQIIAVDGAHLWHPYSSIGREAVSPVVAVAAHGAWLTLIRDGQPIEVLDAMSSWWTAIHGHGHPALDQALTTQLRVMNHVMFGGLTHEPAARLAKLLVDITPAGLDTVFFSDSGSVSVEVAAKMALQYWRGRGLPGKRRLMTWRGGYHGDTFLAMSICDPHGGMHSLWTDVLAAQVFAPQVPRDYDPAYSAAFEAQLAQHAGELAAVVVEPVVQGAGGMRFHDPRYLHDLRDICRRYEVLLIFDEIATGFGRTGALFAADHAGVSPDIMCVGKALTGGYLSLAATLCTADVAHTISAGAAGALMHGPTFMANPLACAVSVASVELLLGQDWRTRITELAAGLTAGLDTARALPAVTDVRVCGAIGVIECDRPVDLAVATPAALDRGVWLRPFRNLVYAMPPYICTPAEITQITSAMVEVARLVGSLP", "assay": "Mycobacterium tuberculosis BioA enzyme inhibitor Measured in Biochemical System Using Plate Reader - 2163-02_Inhibitor_Dose_CherryPick_Activity.", "type": "functional, Mycobacterium tuberculosis UT205"}, "[4]": {"molecular_target": "T2, DNA repair and recombination protein RAD54-like (Homo sapiens, UniProt Q92698)", "T2 sequence (Q92698 whole entry)": "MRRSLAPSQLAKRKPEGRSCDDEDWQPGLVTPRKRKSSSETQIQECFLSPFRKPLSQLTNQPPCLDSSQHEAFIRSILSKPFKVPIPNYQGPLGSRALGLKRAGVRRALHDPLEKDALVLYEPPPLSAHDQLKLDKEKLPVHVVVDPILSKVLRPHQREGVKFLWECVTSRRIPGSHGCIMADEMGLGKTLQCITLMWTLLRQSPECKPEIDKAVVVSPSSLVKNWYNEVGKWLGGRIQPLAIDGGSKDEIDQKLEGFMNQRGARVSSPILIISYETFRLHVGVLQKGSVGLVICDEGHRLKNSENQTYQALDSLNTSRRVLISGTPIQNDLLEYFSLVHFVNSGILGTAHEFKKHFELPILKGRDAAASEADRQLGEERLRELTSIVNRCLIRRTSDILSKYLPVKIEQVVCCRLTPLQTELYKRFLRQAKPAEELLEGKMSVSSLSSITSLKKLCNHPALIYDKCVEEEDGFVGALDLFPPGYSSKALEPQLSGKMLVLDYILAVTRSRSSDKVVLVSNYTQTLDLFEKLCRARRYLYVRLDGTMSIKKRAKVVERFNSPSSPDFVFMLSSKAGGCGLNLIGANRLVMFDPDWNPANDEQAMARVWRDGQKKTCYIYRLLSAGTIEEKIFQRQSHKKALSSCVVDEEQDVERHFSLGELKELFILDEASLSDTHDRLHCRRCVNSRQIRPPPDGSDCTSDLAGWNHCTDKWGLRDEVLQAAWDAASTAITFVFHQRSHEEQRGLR", "assay": "RAD54 Holliday junction migration blockers – biochemical, fluorescence, cherry-picked samples, dose series, confirmation (AID 651657)", "type": "functional"}, "[5]": {"molecular_target": "T3, Endoribonuclease toxin MazF (Escherichia coli K-12, UniProt P0AE70)", "T3 sequence (P0AE70 whole entry)": "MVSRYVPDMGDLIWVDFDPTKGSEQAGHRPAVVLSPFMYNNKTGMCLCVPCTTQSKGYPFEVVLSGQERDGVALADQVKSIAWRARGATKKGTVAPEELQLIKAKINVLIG", "assay": "activation of MazEF endoribonuclease cleavage – biochemical, fluorescence, single-stranded RNA substrate, uHTS hits, dose response (AID 588481)", "type": "functional"}, "[6]": {"molecular_target": "T3, Endoribonuclease toxin MazF", "assay": "substrate-only fluorescence increase artefacts – biochemical, single-stranded RNase substrate, counter-screen for MazEF activator project, dose response (AID 588502)", "type": "functional"}, "Protein skinhead-1": {"molecular_target": "T4, Protein skinhead-1 (Caenorhabditis elegans, UniProt P34707)", "T4 sequence (P34707 whole entry)": "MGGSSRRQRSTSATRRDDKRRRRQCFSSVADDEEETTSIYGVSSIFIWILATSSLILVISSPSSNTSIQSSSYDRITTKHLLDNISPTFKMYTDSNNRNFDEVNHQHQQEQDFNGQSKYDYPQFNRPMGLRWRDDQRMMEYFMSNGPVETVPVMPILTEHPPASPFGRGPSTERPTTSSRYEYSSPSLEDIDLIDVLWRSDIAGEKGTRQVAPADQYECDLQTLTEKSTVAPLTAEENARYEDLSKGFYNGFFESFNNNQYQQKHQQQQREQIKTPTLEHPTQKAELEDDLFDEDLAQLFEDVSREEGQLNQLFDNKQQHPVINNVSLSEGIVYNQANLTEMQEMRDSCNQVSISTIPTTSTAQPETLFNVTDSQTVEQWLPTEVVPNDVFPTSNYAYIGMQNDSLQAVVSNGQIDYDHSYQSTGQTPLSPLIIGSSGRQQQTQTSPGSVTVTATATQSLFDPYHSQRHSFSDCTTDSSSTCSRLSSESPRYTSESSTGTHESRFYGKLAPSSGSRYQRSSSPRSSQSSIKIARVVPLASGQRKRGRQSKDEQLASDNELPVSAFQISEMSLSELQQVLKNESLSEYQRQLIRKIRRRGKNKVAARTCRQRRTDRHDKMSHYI", "type": "functional"}, "[7]": {"molecular_target": "T5, High affinity choline transporter 1 (Homo sapiens, UniProt Q9GZV3)", "T5 sequence (Q9GZV3 whole entry)": "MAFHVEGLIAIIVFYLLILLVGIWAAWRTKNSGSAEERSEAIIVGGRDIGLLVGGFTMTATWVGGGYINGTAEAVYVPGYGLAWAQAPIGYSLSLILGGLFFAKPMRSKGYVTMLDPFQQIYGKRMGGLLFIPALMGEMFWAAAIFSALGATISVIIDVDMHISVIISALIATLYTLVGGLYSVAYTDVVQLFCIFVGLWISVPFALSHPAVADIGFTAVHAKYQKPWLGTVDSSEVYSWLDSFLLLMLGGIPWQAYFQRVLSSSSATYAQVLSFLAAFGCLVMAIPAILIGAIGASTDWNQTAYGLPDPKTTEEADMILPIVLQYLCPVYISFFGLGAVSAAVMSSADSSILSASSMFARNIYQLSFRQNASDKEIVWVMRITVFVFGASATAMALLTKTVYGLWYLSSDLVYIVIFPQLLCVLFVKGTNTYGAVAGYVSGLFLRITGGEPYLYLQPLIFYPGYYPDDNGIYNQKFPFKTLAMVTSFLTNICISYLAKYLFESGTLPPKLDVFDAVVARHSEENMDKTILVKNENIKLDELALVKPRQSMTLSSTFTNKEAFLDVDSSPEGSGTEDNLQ", "assay": "human choline transporter blockers, potency – cell-based, 5-point CRC, membrane potential dye, dose response (AID 504840)", "type": "functional"}, "[8]": {"molecular_target": "T5, High affinity choline transporter 1", "assay": "human choline transporter blockers, potency – cell-based, 10-point CRC, membrane potential dye, dose response (AID 588401);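 further: membrane potential dye fluorescence of choline-evoked depolarization via CHT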", "type": "functional"}, "[9]": {"assay": "Counterscreen for inhibitors of Trypanosoma brucei methionyl tRNA synthetase (MetRS): Luminescence-based cell-based high throughput dose response assay to identify compounds that are cytotoxic to Jurkat human T lymphocyte cells.", "type": "functional"}, "[10]": {"molecular_target": "26S proteasome non-ATPase regulatory subunit 14 (Homo sapiens, UniProt O00487)", "sequence (O00487 whole entry)": "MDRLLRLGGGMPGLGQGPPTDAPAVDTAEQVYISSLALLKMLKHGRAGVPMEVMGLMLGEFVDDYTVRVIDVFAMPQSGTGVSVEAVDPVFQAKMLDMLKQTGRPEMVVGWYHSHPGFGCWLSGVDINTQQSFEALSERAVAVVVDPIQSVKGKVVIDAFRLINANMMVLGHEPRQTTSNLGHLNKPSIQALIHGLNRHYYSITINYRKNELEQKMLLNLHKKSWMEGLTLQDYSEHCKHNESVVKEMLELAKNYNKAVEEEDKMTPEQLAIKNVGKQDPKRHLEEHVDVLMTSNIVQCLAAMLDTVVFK", "assay": "inhibition of proteasome subunit RPN11 – biochemical, fluorescence polarization, uHTS hits, confirmation (AID 602368)", "type": "functional"}, "[11]": {"molecular_target": "72 kDa type IV collagenase (Homo sapiens, UniProt P08253)", "sequence (P08253 whole entry)": "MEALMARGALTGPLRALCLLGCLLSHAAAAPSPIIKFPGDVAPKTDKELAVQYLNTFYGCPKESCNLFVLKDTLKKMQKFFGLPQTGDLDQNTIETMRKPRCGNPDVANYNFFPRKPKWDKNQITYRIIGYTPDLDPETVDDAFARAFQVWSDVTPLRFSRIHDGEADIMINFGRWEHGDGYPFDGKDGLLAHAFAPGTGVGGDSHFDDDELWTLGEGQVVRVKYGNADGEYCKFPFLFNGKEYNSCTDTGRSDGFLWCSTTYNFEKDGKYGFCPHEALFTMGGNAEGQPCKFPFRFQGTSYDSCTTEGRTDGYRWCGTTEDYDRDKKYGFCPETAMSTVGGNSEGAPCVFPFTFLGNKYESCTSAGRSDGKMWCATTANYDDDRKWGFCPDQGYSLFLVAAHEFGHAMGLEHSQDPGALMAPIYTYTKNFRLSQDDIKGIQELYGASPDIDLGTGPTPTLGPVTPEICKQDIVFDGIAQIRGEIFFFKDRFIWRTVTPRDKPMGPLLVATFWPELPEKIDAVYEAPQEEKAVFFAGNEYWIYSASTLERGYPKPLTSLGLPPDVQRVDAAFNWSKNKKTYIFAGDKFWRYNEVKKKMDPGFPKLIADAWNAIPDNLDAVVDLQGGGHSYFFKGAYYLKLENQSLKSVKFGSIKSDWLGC", "assay": "Dose Response validation of uHTS RPN11 inhibitor hits using a MMP-2 Fluorescence assay.", "type": "functional"}, "Prothrombin": {"molecular_target": "Prothrombin (Bos taurus, UniProt P00735)", "assay": "thrombin protease inhibitors – biochemical, fluorescence polarization, uHTS hits, dose response (AID 602369)", "type": "functional"}, "[12]": {"molecular_target": "Protein disulfide-isomerase (Homo sapiens, UniProt P07237)", "sequence (P07237 whole entry)": "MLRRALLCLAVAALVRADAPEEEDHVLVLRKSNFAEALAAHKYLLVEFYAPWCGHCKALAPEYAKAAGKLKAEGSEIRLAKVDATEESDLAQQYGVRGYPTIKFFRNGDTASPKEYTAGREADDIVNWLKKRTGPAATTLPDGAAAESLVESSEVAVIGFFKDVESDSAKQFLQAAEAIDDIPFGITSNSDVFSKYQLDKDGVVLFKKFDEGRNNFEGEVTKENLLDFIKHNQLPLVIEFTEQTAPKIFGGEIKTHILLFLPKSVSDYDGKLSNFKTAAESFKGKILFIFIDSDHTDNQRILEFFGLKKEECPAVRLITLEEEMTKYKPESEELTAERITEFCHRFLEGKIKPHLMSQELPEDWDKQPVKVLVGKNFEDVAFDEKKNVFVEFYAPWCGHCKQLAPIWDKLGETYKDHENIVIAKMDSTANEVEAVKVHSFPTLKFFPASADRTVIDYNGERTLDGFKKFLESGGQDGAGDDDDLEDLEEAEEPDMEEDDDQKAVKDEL", "assay": "inhibition of PDI-driven insulin aggregation – biochemical, turbidity, absorbance, cherry-picked samples, dose response (AID 602350)", "type": "functional"}, "[13]": {"molecular_target": "Hepatocyte nuclear factor 4-alpha (Homo sapiens, UniProt P41235)", "sequence (P41235 whole entry)": "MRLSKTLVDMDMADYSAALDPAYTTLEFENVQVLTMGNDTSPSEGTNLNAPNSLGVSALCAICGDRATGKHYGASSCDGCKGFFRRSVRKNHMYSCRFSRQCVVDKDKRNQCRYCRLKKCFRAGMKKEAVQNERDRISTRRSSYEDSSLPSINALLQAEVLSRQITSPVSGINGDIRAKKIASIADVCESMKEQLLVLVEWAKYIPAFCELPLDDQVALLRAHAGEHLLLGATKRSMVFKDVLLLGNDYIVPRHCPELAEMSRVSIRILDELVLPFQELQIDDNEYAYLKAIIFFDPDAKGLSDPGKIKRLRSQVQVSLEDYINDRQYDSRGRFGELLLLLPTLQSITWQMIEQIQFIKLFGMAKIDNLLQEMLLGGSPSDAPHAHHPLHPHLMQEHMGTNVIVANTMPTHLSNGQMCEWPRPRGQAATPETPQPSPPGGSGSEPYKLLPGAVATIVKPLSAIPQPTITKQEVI", "type": "functional, cell-based"}}, "note": "Activity calls are given as the source filed them.", "data": [{"compound": "CC1=C/C(=C\\c2ccc(Br)o2)C(=O)O1", "values": [{"measurement": "AC50", "setting": "[1]", "result": "4.71 µM (active)"}, {"measurement": "IC50", "setting": "[2]", "result": "4.99 µM (active)"}]}, {"compound": "CN1CCN(c2[nH]cnc3c4cc(F)ccc4nc2-3)CC1", "values": [{"measurement": "AC50", "setting": "[3]", "result": "2.8 µM (active)"}, {"measurement": "AC50", "setting": "[4]", "result": "28.8 µM (active)"}]}, {"compound": "COC(=O)CSc1nc2cc(C)cc(C)c2cc1C#N", "values": [{"measurement": "EC50", "setting": "[5]", "result": "> 99 µM (inactive)"}, {"measurement": "EC50", "setting": "[6]", "result": "> 99 µM (inactive)"}, {"measurement": "IC50", "setting": "Protein skinhead-1", "result": "> 100 µM (inactive)"}]}, {"compound": "COc1ccc(C2=NN(c3ccc(C(=O)O)cc3)C(c3ccc(OC)c(OC)c3)C2)cc1", "note": "(centres undefined)", "values": [{"measurement": "IC50", "setting": "[7]", "result": "4.79 µM (active)"}, {"measurement": "IC50", "setting": "[8]", "result": "3.55 µM (active)"}]}, {"compound": "Cc1cccc(NS(=O)(=O)c2ccc3[nH]c(-c4ccccc4)nc3c2)c1C", "values": [{"measurement": "IC50", "setting": "[9]", "result": "25.1 µM (inactive)"}]}, {"compound": "O=C(OCCCOc1ccc(F)cc1)c1ccc(O)cc1O", "values": [{"measurement": "IC50", "setting": "[7]", "result": "3.59 µM (active)"}, {"measurement": "IC50", "setting": "[8]", "result": "4.47 µM (active)"}]}, {"compound": "O=C(Nc1nc(-c2ccc(F)c(F)c2)cs1)Nc1ccc(F)cc1F", "values": [{"measurement": "IC50", "setting": "[10]", "result": "30.3 µM (active)"}, {"measurement": "IC50", "setting": "[11]", "result": "> 100 µM (inactive)"}, {"measurement": "IC50", "setting": "Prothrombin", "result": "78.3 µM (active)"}]}, {"compound": "N=C1CCCN1CC(=O)c1ccc(Cl)cc1", "values": [{"measurement": "IC50", "setting": "[7]", "result": "6.01 µM (active)"}, {"measurement": "IC50", "setting": "[8]", "result": "2.7 µM (active)"}]}, {"compound": "COc1cccc(/C=C(/CC(=O)Nc2ccc(N3CCOCC3)cc2)c2nc3ccccc3s2)c1", "values": [{"measurement": "IC50", "setting": "[10]", "result": "12.6 µM (active)"}, {"measurement": "IC50", "setting": "[11]", "result": "> 100 µM (inactive)"}, {"measurement": "IC50", "setting": "Prothrombin", "result": "25 µM (active)"}]}, {"compound": "CC(=O)OC[C@H]1O[C@@H](Oc2cc(O)cc3oc(-c4ccc(O)cc4)cc(=O)c23)[C@H](O[C@@H]2O[C@@H](C)[C@H](O)[C@@H](O)[C@H]2O)[C@@H](O)[C@@H]1O", "values": [{"measurement": "AC50", "setting": "[12]", "result": "19.5 µM (active)"}]}, {"compound": "C=C1C(=O)O[C@H]2C[C@H]1[C@@H](OC(C)=O)C/C(C)=C/CC/C(C)=C\\CC[C@]2(C)O", "values": [{"measurement": "IC50", "setting": "[13]", "result": "3.21 µM (active)"}]}, {"compound": "Cc1cc(C(=O)NC2CC(C)(C)Cc3c2cnn3-c2cccc(F)c2)nn1C", "note": "(centres undefined)", "values": [{"measurement": "AC50", "setting": "[3]", "result": "2.72 µM (active)"}]}, {"compound": "Cc1cccc(C)c1NC(=O)C(c1ccc(C#N)cc1)n1c(=O)c(-c2ccco2)nc2ccccc21", "note": "(centres undefined)", "values": [{"measurement": "IC50", "setting": "[13]", "result": "1.86 µM (active)"}]}]}
